Results on three compounds are retold here after patent US20200368310A1, “TREATMENT WITH NMDA RECEPTOR MODULATORS” (Naurex, Inc, priority 2017, published 2020).

Residues, ends and D or L forms follow the SMILES beside them.

This experiment has as its system Male rats. The experiment can be described thus: Sleep-wake cycle analysis by telemetric EEG recording in rats. The experiment is classed as in vivo, rat. The note with it: for percentage of active waking: FIG. 4B. On the procedure:
Male rats were anesthetized and surgically implanted with 2 surface electrodes in the frontoparietal cortex and 2 depth electrodes in the CA1 region of the hippocampus (AP +5.0 mm, L ±2.5 mm, V +7.0 mm). After ≥10 days recovery, telemetric transmitters were connected to electrodes for electroencephalographic (EEG) recordings. On the day of experiment, rats were injected at the beginning of the light phase with rapastinel (3, 10, or 30 mg/kg, IV), ketamine (30 mg/kg, IP), or the positive control zolpidem (12 mg/kg, PO) using a treatment schedule based on a cross-over design (n=9-10/dose/group) in which rats received zolpidem or rapastinel at session 1 and then rapastinel and/or ketamine at sessions 2-4. Physiological saline was used as the vehicle control
Sleep-wake cycles were measured continuously following rapastinel treatment for the next 23 hours and were analyzed based on a spectral power analysis. Latencies to first occurrence of SWS and REM sleep, as well as percent time spent in SWS, REM sleep, and wakefulness, were calculated for the total recording sessions (23 hours), the half cycles (0-12 and 12-23 hours), and 5 time segments (0-4, 4-8, 8-12, 12-18, and 18-23 hours). Depth of SWS (defined as the ratio between alpha and delta spectral power) was also calculated. Differences between vehicle and test drugs were calculated for all variables, for each animal, and for the means of the animals per treatment group, and analyzed using a paired t-test

`Cc1ccc(-c2nc3ccc(C)cn3c2CC(=O)N(C)C)cc1` [Zolpidem, zolpidem]: the “percentage of active waking” value (zolpidem 12 mg/kg PO, 0-12 hours post-dose, P<0.05) is recorded as “significantly decreased”. Further, the “duration of REM sleep” value (zolpidem 12 mg/kg PO, 4-8 hours post-dose, P<0.05, FIG. 3) is “significantly decreased”.
Regarding `C[C@@H](O)[C@H](N)C(=O)N1CCC[C@H]1C(=O)N1CCC[C@H]1C(=O)N[C@H](C(N)=O)[C@@H](C)O` [Rapastinel, rapastinel] (H-TPPT-NH2), the “percentage of active waking” value is “small but significant decrease” (rapastinel 30 mg/kg IV, 8-12 hours post-dose, P<0.01); “small but significant decrease” (rapastinel 30 mg/kg IV, 18-23 hours post-dose, P<0.05); “no effect” (rapastinel, all doses and periods except 8-12 and 18-23 hours at 30 mg/kg).
Regarding `CNC1(c2ccccc2Cl)CCCCC1=O` (stereo not drawn) [Ketamine, ketamine], for the setting “ketamine 30 mg/kg IP, 0-4 hours post-dose, P<0.001”, the “alpha/delta ratio (depth of SWS)” value was “concomitant decrease”. Also, the “duration of SWS” value (ketamine 30 mg/kg IP, 0-4 hours post-dose, P<0.001, FIG. 2A) was “decreased”. Moreover, the “duration of REM sleep” value (ketamine 30 mg/kg IP, 0-4 hours post-dose, P<0.001, FIG. 3) is “decreased”. Moreover, the “waking (duration)” value (ketamine 30 mg/kg IP, 12-23 hours post-dose, P<0.01, FIG. 4A) was “small but significant decrease”. Also, the “REM sleep (duration)” value (ketamine 30 mg/kg IP, 12-23 hours post-dose, P<0.05, FIG. 3) was “compensatory increase”. In addition, the “percentage of active waking” value (ketamine 30 mg/kg IP, 12-23 hours post-dose, P<0.05) is “significantly decreased”. The duration of waking entry (ketamine 30 mg/kg IP, first 4 hours post-dose, P<0.001, FIG. 4A) is given as “significantly increased”.
